Tests used:
Type in all cases: in vivo
[1] = tested on: LOLMU Lolium multiflorum; assay: Pre-emergence herbicidal action against harmful plants; details: visual scoring 3-4 weeks after treatment
Source text: (§1) Seeds or rhizome pieces of mono- and dicotyledonous harmful plants are placed in sandy loam in pots of a diameter of 9 to 13 cm and covered with soil. The herbicides, formulated as emulsifiable concentrates or dusts, are applied to the surface of the covering soil in the form of aqueous dispersions or suspensions or emulsions at an application rate of 300 to 800 l of water/ha (converted), at various dosages. For further cultivation of the plants, the pots are then kept in a greenhouse under optimum conditions. The visual scoring of the damage to the harmful plants is carried out 3-4 weeks after the treatment. As shown by the results of these comparative tables, the selected compounds according to the invention have better herbicidal activity against a broad spectrum of economically important mono- and dicotyledonous harmful plants than the compounds disclosed in the prior art.

[2] = tested on: AVESA; assay: as above; details: 320 g a.i./ha, visual scoring 3-4 weeks after treatment, Comparative Table 6
Source text: as §1

[3] = tested on: AMARE Amaranthus retroflexus; assay: as above; details: visual scoring 3-4 weeks after treatment
Source text: as §1

[4] = tested on: SETVI Setaria viridis; assay: as above; details: 320 g a.i./ha, visual scoring 3-4 weeks after treatment, Comparative Table 6
Source text: as §1

[5] = tested on: LOLMU Lolium multiflorum; assay: Post-emergence herbicidal action against harmful plants; details: scored after 3 to 4 weeks
Procedure: (§2) Seeds of mono- and dicotyledonous harmful plants are placed in sandy loam in cardboard pots, covered with soil and grown in the greenhouse under good growth conditions. Two to three weeks after sowing, the test plants are treated at the three-leaf stage. The compounds according to the invention, which are formulated as wettable powders or as emulsion concentrates, are sprayed at an application rate of 600 to 800 l of water/ha (converted) in a dosage stated in tables 1 to 5 onto the surface of the green plant parts. After the test plants have been left to stand in the greenhouse for 3 to 4 weeks under optimum growth conditions, the action of the compounds according to the invention is scored in comparison to compounds disclosed in the prior art. As shown by the results of these comparison tables, the selected compounds according to the invention have better herbicidal activity against a broad spectrum of economically important mono- and dicotyledonous harmful plants than the compounds disclosed in the prior art.

[6] = tested on: AVESA; assay: as above; details: Port-emergence, scored after 3 to 4 weeks, Comparative Table 7
Procedure: as §2

[7] = tested on: ECHCG Echinochloa crus galli; assay: as above; details: scored after 3 to 4 weeks
Procedure: as §2

[8] = tested on: SETVI Setaria viridis; assay: as above; details: scored after 3 to 4 weeks
Procedure: as §2

[9] = tested on: ECHCG Echinochloa crus galli; assay: Pre-emergence herbicidal action against harmful plants; details: 80 g a.i./ha, visual scoring 3-4 weeks after treatment, Comparative Table 1
Source text: as §1

[10] = tested on: ABUTH Abutilon theophrasti; assay: as above; details: 80 g a.i./ha, visual scoring 3-4 weeks after treatment, Comparative Table 1
Source text: as §1

[11] = tested on: STEME Stellaria media; assay: as above; details: 80 g a.i./ha, visual scoring 3-4 weeks after treatment, Comparative Table 2
Source text: as §1

[12] = tested on: VERPE Veronica persica; assay: as above; details: 80 g a.i./ha, visual scoring 3-4 weeks after treatment
Source text: as §1

[13] = tested on: ABUTH Abutilon theophrasti; assay: Post-emergence herbicidal action against harmful plants; details: Port-emergence, 80 g a.i./ha, scored after 3 to 4 weeks; Comparative Table 4
Procedure: as §2

[14] = tested on: MATIN Matricaria inodora; assay: as above; details: 80 g a.i./ha, scored after 3 to 4 weeks
Procedure: as §2

[15] = tested on: AMARE Amaranthus retroflexus; assay: as above; details: Port-emergence, 80 g a.i./ha, scored after 3 to 4 weeks; Comparative Table 4
Procedure: as §2

[16] = tested on: POLCO Polygonum convolvulus; assay: as above; details: Port-emergence, 80 g a.i./ha, scored after 3 to 4 weeks; Comparative Table 5
Procedure: as §2

[17] = tested on: VIOTR Viola tricolor; assay: as above; details: 80 g a.i./ha, scored after 3 to 4 weeks
Procedure: as §2

[18] = tested on: STEME Stellaria media; assay: as above; details: Port-emergence, 80 g a.i./ha, scored after 3 to 4 weeks; Comparative Table 5
Procedure: as §2

[19] = tested on: VERPE Veronica persica; assay: as above; details: 80 g a.i./ha, scored after 3 to 4 weeks
Procedure: as §2

[20] = tested on: POLCO Polygonum convolvulus; assay: Pre-emergence herbicidal action against harmful plants; details: 80 g a.i./ha, visual scoring 3-4 weeks after treatment, Comparative Table 8
Source text: as §1

[21] = tested on: GALAP Galium aparine; assay: as above; details: 80 g a.i./ha, visual scoring 3-4 weeks after treatment, Comparative Table 8
Source text: as §1

[22] = tested on: VIOTR Viola tricolor; assay: as above; details: 80 g a.i./ha, visual scoring 3-4 weeks after treatment, Comparative Table 9
Source text: as §1

[23] = tested on: XANST Xanthium strumarium; assay: as above; details: 80 g a.i./ha, visual scoring 3-4 weeks after treatment, Comparative Table 9
Source text: as §1

[24] = tested on: DIGSA Digitaria sanguinalis; assay: Post-emergence herbicidal action against harmful plants; details: 80 g a.i./ha, scored after 3 to 4 weeks, Comparative Table 10
Procedure: as §2

[25] = tested on: XANST Xanthium strumarium; assay: as above; details: 80 g a.i./ha, scored after 3 to 4 weeks, Comparative Table 11
Procedure: as §2

[26] = 320 g a.i./ha, Comparative Table 6
[27] = Port-emergence, 320 g a.i./ha, Comparative Table 7
[28] = 80 g a.i./ha, Comparative Table 1
[29] = 80 g a.i./ha, Comparative Table 2
[30] = Post-emergence, 80 g a.i./ha, Comparative Table 3
[31] = Port-emergence, Comparative Table 4
[32] = Port-emergence, Comparative Table 5
[33] = Port-emergence, 80 g a.i./ha, Comparative Table 7
[34] = 80 g a.i./ha, Comparative Table 8
[35] = Post-emergence, 80 g a.i./ha, Comparative Table 10
[36] = Post-emergence, Comparative Table 11

Cc1c(C(=O)c2cnn(C)c2O)ccc(C(F)(F)F)c1F
Activity against harmful plants LOLMU [1, 26]: 20%
Activity against harmful plants AVESA [2]: 20%
Activity against harmful plants AMARE [3, 26]: 50%
Activity against harmful plants SETVI [4]: 20%

Cc1c(C(=O)c2cnn(C)c2O)ccc(C(F)(F)F)c1Cl
Activity against harmful plants LOLMU [5, 27]: 20%
Activity against harmful plants AVESA ([6]; 320 g a.i./ha): 20%
Activity against harmful plants ECHCG [7, 27]: 0%
Activity against harmful plants SETVI [8, 27]: 30%

CCn1ncc(C(=O)c2ccc(C(F)(F)F)c(S(C)(=O)=O)c2C)c1O [drawing 15]
Activity against harmful plants LOLMU [1, 28]: 70%
Activity against harmful plants ECHCG [9]: 100%
Activity against harmful plants ABUTH [10]: 100%

CCn1ncc(C(=O)c2ccc(C(F)(F)F)c(F)c2C)c1O [drawing 16]
Activity against harmful plants LOLMU [1, 28]: 0%
Activity against harmful plants ECHCG [9]: 30%
Activity against harmful plants ABUTH [10]: 0%

CCn1ncc(C(=O)c2ccc(C(F)(F)F)c(S(C)(=O)=O)c2C)c1O [drawing 17]
Activity against harmful plants AMARE [3, 29]: 90%
Activity against harmful plants STEME [11]: 90%
Activity against harmful plants VERPE ([12]; Comparative Table 2): 90%

CCn1ncc(C(=O)c2ccc(C(F)(F)F)c(F)c2C)c1O [drawing 18]
Activity against harmful plants AMARE [3, 29]: 0%
Activity against harmful plants STEME [11]: 40%
Activity against harmful plants VERPE ([12]; Comparative Table 2): 0%

CCn1ncc(C(=O)c2ccc(C(F)(F)F)c(S(C)(=O)=O)c2C)c1O [drawing 19]
Activity against harmful plants LOLMU [5, 30]: 60%
Activity against harmful plants ECHCG [7, 30]: 90%
Activity against harmful plants SETVI [8, 30]: 100%

CCn1ncc(C(=O)c2ccc(C(F)(F)F)c(F)c2C)c1O [drawing 20]
Activity against harmful plants LOLMU [5, 30]: 0%
Activity against harmful plants ECHCG [7, 30]: 0%
Activity against harmful plants SETVI [8, 30]: 0%

CCn1ncc(C(=O)c2ccc(C(F)(F)F)c(S(C)(=O)=O)c2C)c1O [drawing 21]
Activity against harmful plants ABUTH [13]: 90%
Activity against harmful plants MATIN [14, 31]: 90%
Activity against harmful plants AMARE [15]: 100%

CCn1ncc(C(=O)c2ccc(C(F)(F)F)c(F)c2C)c1O [drawing 22]
Activity against harmful plants ABUTH [13]: 80%
Activity against harmful plants MATIN [14, 31]: 0%
Activity against harmful plants AMARE [15]: 0%

CCn1ncc(C(=O)c2ccc(C(F)(F)F)c(S(C)(=O)=O)c2C)c1O [drawing 23]
Activity against harmful plants POLCO [16]: 100%
Activity against harmful plants VIOTR [17, 32]: 80%
Activity against harmful plants STEME [18]: 90%
Activity against harmful plants VERPE [19, 32]: 90%

CCn1ncc(C(=O)c2ccc(C(F)(F)F)c(F)c2C)c1O [drawing 24]
Activity against harmful plants POLCO [16]: 60%
Activity against harmful plants VIOTR [17, 32]: 0%
Activity against harmful plants STEME [18]: 0%
Activity against harmful plants VERPE [19, 32]: 0%

Cc1c(C(=O)c2cnn(C)c2O)ccc(C(F)(F)F)c1S(C)(=O)=O [drawing 25]
Activity against harmful plants LOLMU [1, 26]: 90%
Activity against harmful plants AVESA [2]: 90%
Activity against harmful plants AMARE [3, 26]: 100%
Activity against harmful plants SETVI [4]: 100%

Cc1c(C(=O)c2cnn(C)c2O)ccc(C(F)(F)F)c1S(C)(=O)=O [drawing 27]
Activity against harmful plants LOLMU [5, 33]: 80%
Activity against harmful plants AVESA ([6]; 80 g a.i./ha): 70%
Activity against harmful plants ECHCG [7, 33]: 90%
Activity against harmful plants SETVI [8, 33]: 90%

CCn1ncc(C(=O)c2ccc(C(F)(F)F)c(S(C)(=O)=O)c2C)c1O [drawing 29]
Activity against harmful plants LOLMU [1, 34]: 70%
Activity against harmful plants POLCO [20]: 50%
Activity against harmful plants GALAP [21]: 80%

CCn1ncc(C(=O)c2ccc(S(C)(=O)=O)c(S(C)(=O)=O)c2C)c1O [drawing 30]
Activity against harmful plants LOLMU [1, 34]: 0%
Activity against harmful plants POLCO [20]: 30%
Activity against harmful plants GALAP [21]: 60%

CCn1ncc(C(=O)c2ccc(C(F)(F)F)c(S(C)(=O)=O)c2C)c1O [drawing 31]
Activity against harmful plants VIOTR [22]: 90%
Activity against harmful plants XANST [23]: 100%
Activity against harmful plants VERPE ([12]; Comparative Table 9): 90%

CCn1ncc(C(=O)c2ccc(S(C)(=O)=O)c(S(C)(=O)=O)c2C)c1O [drawing 32]
Activity against harmful plants VIOTR [22]: 20%
Activity against harmful plants XANST [23]: 40%
Activity against harmful plants VERPE ([12]; Comparative Table 9): 80%

CCn1ncc(C(=O)c2ccc(C(F)(F)F)c(S(C)(=O)=O)c2C)c1O [drawing 33]
Activity against harmful plants LOLMU [5, 35]: 60%
Activity against harmful plants DIGSA [24]: 100%
Activity against harmful plants ECHCG [7, 35]: 90%
Activity against harmful plants SETVI [8, 35]: 100%

CCn1ncc(C(=O)c2ccc(S(C)(=O)=O)c(S(C)(=O)=O)c2C)c1O [drawing 34]
Activity against harmful plants LOLMU [5, 35]: 20%
Activity against harmful plants DIGSA [24]: 80%
Activity against harmful plants ECHCG [7, 35]: 80%
Activity against harmful plants SETVI [8, 35]: 80%

CCn1ncc(C(=O)c2ccc(C(F)(F)F)c(S(C)(=O)=O)c2C)c1O [drawing 35]
Activity against harmful plants VIOTR [17, 36]: 80%
Activity against harmful plants MATIN [14, 36]: 90%
Activity against harmful plants XANST [25]: 100%
Activity against harmful plants VERPE [19, 36]: 90%

CCn1ncc(C(=O)c2ccc(S(C)(=O)=O)c(S(C)(=O)=O)c2C)c1O [drawing 36]
Activity against harmful plants VIOTR [17, 36]: 50%
Activity against harmful plants MATIN [14, 36]: 40%
Activity against harmful plants XANST [25]: 70%
Activity against harmful plants VERPE [19, 36]: 80%
